Laboratory results from article PMC11574021, “CEP192 localises mitotic Aurora-A activity by priming its interaction with TPX2” (The EMBO Journal, 2024).

Assays:
[1] = system: Aurora-A:TACC3 complexes in RPE1 p53-/- cells; assay: Proximity ligation assay Aurora-A:TACC3, RPE1 p53-/-; format: cell-based, Homo sapiens; conditions: siRNA 48 h
Description: siRNA depletion was carried out by reverse transfection using oligofectamine (Thermo Scientific, 12252011) and lipofectamine RNAiMax (Thermo Scientific, 13778075), according to the manufacturer’s instructions, for U251 and RPE1 cells, respectively. For immunofluorescence, 1 × 10^5 cells were seeded in six-well plates and simultaneously transfected with 60 pmol siRNA duplex and 3 µl transfection reagent diluted in 200 µl Opti-MEM serum-free medium. Growth medium was added to a final volume of 2 ml. For western blotting, 1 × 10^6 cells were seeded in 10 cm dishes and transfected with 300 pmol siRNA duplex and 15 µl transfection reagent diluted in 1000 µl Opti-MEM. Growth medium was added to a final volume of 10 ml. Cells were incubated with siRNA for 48 h prior to fixation or harvesting. As a negative control (siControl) Silencer select negative control No.1 siRNA was transfected as above. For TACC3 depletion, where two siRNA duplexes were used, 40 pmol of each was transfected per well.
Cells were seeded and fixed as above, then a proximity ligation assay (PLA) was carried out according to the manufacturer’s instructions with the supplied buffers (Navinci, NaveniFlex Cell MR Red, NC.MR.100 Red). All incubations are for 1 h at 37 °C, unless otherwise stated. […]

[2] = system: γ-tubulin in RPE1 cells; assay: Immunofluorescence, γ-tubulin centrosomal signal intensity, RPE1; format: cell-based, Homo sapiens; conditions: RPE1 p53-/-, Aurora-A inhibitor 30 min
Description: As noted in the figures, the following drugs were incubated with cells for 30 min at 37 °C: Aurora-B-i ZM447439 2 µM [10 mM], PLK1-I BI2536 1 µM [10 mM] and Aurora-A-i MLN8237 [5 mM] was used at 250 and 500 nM in U251 and RPE1 cells, respectively. Drugs were resuspended in DMSO to the stock concentrations indicated in square brackets. BI2536 (HY-50698), MLN8237 (HY-10971) and ZM447439 (HY-10128) were all purchased from MedChemExpress. For western blotting, a 20-min pre-treatment with proteasome inhibitor (20 µM MG-132, MerckMillipore, 47490 [20 mM]) was required prior to the addition of DMSO control or kinase inhibitors. This prevented mitotic exit as a consequence of checkpoint override following Aurora-A and Aurora-B inhibitor addition.
For siRNA depletion, 1 × 10^5 cells were seeded in six-well plates and transfected as described above for 48 h prior to fixation. For all other experiments, 2.5 × 10^5 cells were seeded in six-well plates and grown for 24 h before fixation. All cells were grown on 12 mm diameter glass coverslips (VWR, 631–1577). […]
For CEP192, LATS2-pS83, PCNT, PLK1 and γ-tubulin intensity, a 20-pixel diameter circle was centred over each centrosome and the intensity measured. […]

Molecule	PLA foci formation between TACC3 and Aurora-A antibodies [1]	centrosomal γ-tubulin [2]
5′-CGGUAGUGAUAAAAGCUCAtt-3′ [siTPX2]	fully prevented both spindle recruitment of TACC3 and PLA foci formation	–
COc1cc(Nc2ncc3c(n2)-c2ccc(Cl)cc2C(c2c(F)cccc2OC)=NC3)ccc1C(=O)O [Alisertib]	–	significant drop in centrosomal γ-tubulin
